Columns and labels:
[1] = tested on: maternal immune activation (MIA) mouse model; experiment: T-maze spontaneous alternation, MIA model; type: in vivo; details: MIA animals
Protocol: Novelty preference was tested as spontaneous alternation behavior in the T-maze. […] (N=8-13, 5.25-month-old males per group).
Novelty preference is an innate feature of normal rodent and human behavior and a predictor of socialization and communication growth in children with ASD. The loss or suppression of novelty preference in children with ASD is associated with the phenomenon known as insistence on sameness. Preference for novelty was estimated as spontaneous alternation behavior in the T-maze. The T-maze can also be used to estimate spatial working memory, especially when food-motivated. […] These deficits were normalized after a single dose of suramin.

[2] = tested on: cerebral synaptosomes; experiment: Synaptosome isolation and ultrastructure (electron microscopy); type: in vivo, mouse; details: suramin-treated Fmr1 KO mice
Source text: Cerebral samples were collected, homogenized and synaptosomes isolated by discontinuous Percoll gradient centrifugation, drop dialyzed, glutaraldehyde fixed, post-fixed in osmium tetroxide, embedded, sectioned, and stained with uranyl acetate for transmission electron microscopy. Samples from the FVB control animals (+/−suramin) were not available for study by either electron microscopy or Western analysis.
In the present study of the Fragile X model, saline-treated Fmr1 knockout mice had cerebral synaptosomes that also contained an electron dense matrix, and fragile, hypomorphic post-synaptic densities.

[3] = tested on: Fragile X (Fmr1) knockout mouse; experiment: T-maze spontaneous alternation (novelty preference), Fragile X model; type: in vivo; details: Fmr1 KO mice, weekly suramin 20 mg/kg ip
Source text: A preference for novelty was estimated as spontaneous alternation behavior in the T-maze.

[4] = tested on: Fragile X (Fmr1) knockout mouse; experiment: Plasma metabolomics after weekly suramin or saline, Fragile X model; type: in vivo; details: for Suramin Treatment Effect (KO-Sur/KO-Sal): Fragile X KO
Protocol: Samples were analyzed on an AB SCIEX QTRAP 5500 triple quadrupole mass spectrometer equipped with a Turbo V electrospray ionization (ESI) source, Shimadzu LC-20A UHPLC system, and a PAL CTC autosampler (AB ACIEX, Framingham, Mass., USA). […] Plasma was separated by centrifugation at 600 g×5 minutes at 20° C. within one hour of collection. Fresh lithium-heparin plasma was transferred to labeled tubes for storage at −80° C. for analysis. Typically 45 μl of plasma was thawed on ice and transferred to a 1.7 ml Eppendorf tube. Two and one-half (2.5) μl of a cocktail containing 35 commercial stable isotope internal standards, and 2.5 μl of 310 stable isotope internal standards that were custom-synthesized in E. coli and S. cerevisiae by metabolic labeling with ^13C-glucose and ^13C-bicarbonate, were added, mixed, and incubated for 10 min at room temperature to permit small molecules and vitamins in the internal standards to associate with plasma binding proteins. Macromolecules (protein, DNA, RNA, etc.) were precipitated by extraction with 4 volumes (200 μl) of cold (−20° C.), acetonitrile:methanol (50:50) (LCMS grade, Cat#LC015-2.5 and GC230-4, Burdick & Jackson, Honeywell), vortexed vigorously, and incubated on crushed ice for 10 min, then removed by centrifugation at 16,000 g×10 min at 4° C. The supernatants containing the extracted metabolites and internal standards in the resulting 40:40:20 solvent mix of acetonitrile:methanol:water were transferred to labeled cryotubes and stored at −80° C. for LC-MS/MS (liquid chromatography-tandem mass spectrometry) analysis.
LC-MS/MS analysis was performed by multiple reaction monitoring (MRM) under Analyst v1.6.1 (AB SCIEX, Framingham, Mass., USA) software control in both negative and positive mode with rapid polarity switching (50 ms). Nitrogen was used for curtain gas (set to 30), collision gas (set to high), ion source gas 1 and 2 (set to 35). The source temperature was 500° C. Spray voltage was set to −4500 V in negative mode and 5500 V in positive mode. The values for Q1 and Q3 mass-to-charge ratios (m/z), declustering potential (DP), entrance potential (EP), collision energy (CE), and collision cell exit potential (CXP) were determined and optimized for each MRM for each metabolite. Ten microliters of extract was injected by PAL CTC autosampler into a 250 mm×2 mm, 5 μm Luna NH2 aminopropyl HPLC column (Phenomenex, Torrance, Calif., USA) held at 25° C. for chromatographic separation. […] The flow rate was 300 μl/min. All the samples were kept at 4° C. during analysis. The chromatographic peaks were identified using MultiQuant (v3.0, AB SCIEX), confirmed by manual inspection, and the peak areas integrated. The median of the peak area of stable isotope internal standards was calculated and used for the normalization of metabolites concentration across the samples and batches. Prior to multivariate and univariate analysis, the data were log-transformed.
A rendering of mammalian intermediary metabolism was constructed in Cytoscape v 3.1.1 (see, e.g., [http://]www.cytoscape.org/). […] Nodes in the Cytoscape network represent metabolites within the pathways and have been colored according to the Z-score. The Z-score was computed as the arithmetic difference between the mean concentration of each metabolite in the KO-Sur treatment group and the KO-Sal control group, divided by the standard deviation in the controls. Node colors were arranged on a red-green color scale with green representing −2.00 Z-score, red representing +2.00 Z-score, and with a zero (0) Z-score represented as white.
Group means and standard error of the means (SEM) are reported. Behavioral data were analyzed by two-way ANOVA and one-way ANOVAs (GraphPad Prism 5.0d, GraphPad Software Inc., La Jolla, Calif., USA, or Stata/SE v12.1, StataCorp, College Station, Tex., USA). Pair-wise post hoc testing was performed by the method of Tukey or Newman-Keuls. Significance was set at p<0.05.

[5] = tested on: maternal immune activation (MIA) mouse model; experiment: Rotarod (latency to fall), MIA model; type: in vivo; details: MIA 6-month-old adults, single injection of suramin
Source text: (N=8-13, 6.75-month-old males per group).
Previous studies have shown age-dependent, postnatal loss of cerebellar Purkinje cells in the MIA model. This can reach up to 60% of Purkinje cells lost by 4 months (16 weeks) of age. Motor coordination measured by rotarod performance is deficient in the MIA model and is critically dependent on the integrity of Purkinje cell circuits in the cerebellum. Since Purkinje cells are known to be lost in MIA animals by 4 months (16 weeks) of age, it was hypothesized that APT given later in life would have no effect. The results confirmed this. […] Although cerebellar Purkinje cell density was not quantified in this study, our results are consistent with the notion that once Purkinje cells are lost, their function cannot be restored by APT in adult animals.

## Cc1ccc(C(=O)Nc2ccc(S(=O)(=O)O)c3cc(S(=O)(=O)O)cc(S(=O)(=O)O)c23)cc1NC(=O)c1cccc(NC(=O)Nc2cccc(C(=O)Nc3cc(C(=O)Nc4ccc(S(=O)(=O)O)c5cc(S(=O)(=O)O)cc(S(=O)(=O)O)c45)ccc3C)c2)c1 [Suramin, suramin]
[1]; 5 weeks after single dose
  novelty preference five weeks after suramin washout: no residual benefit remained
[1]; single dose of suramin
  deficient novelty preference (spontaneous alternation in T-maze): normalized
[2]
  cerebral synaptosome ultrastructure: near-normal appearing cerebral synaptosomes
[3]
  deficient novelty preference (spontaneous alternation in T-maze): normalized
[4]; Bile Salt Metabolism, plasma
  Suramin Treatment Effect (KO-Sur/KO-Sal): Increased
[4]; Branch Chain Amino Acid Metabolism, plasma
  Suramin Treatment Effect (KO-Sur/KO-Sal): Increased
[4]; Cardiolipin Metabolism, plasma
  Suramin Treatment Effect (KO-Sur/KO-Sal): Decreased
[4]; Cholesterol, Cortisol, Non-Gonadal Steroid Metabolism, plasma
  Suramin Treatment Effect (KO-Sur/KO-Sal): 2/2 Increased
[4]; Eicosanoid and Resolvin Metabolism, plasma
  Suramin Treatment Effect (KO-Sur/KO-Sal): 4/6 Increased
[4]; Fatty Acid Oxidation and Synthesis, plasma
  Suramin Treatment Effect (KO-Sur/KO-Sal): 9/9 Decreased
[4]; Ganglioside Metabolism, plasma
  Suramin Treatment Effect (KO-Sur/KO-Sal): 6/6 Increased
[4]; Glycolysis and Gluconeogenesis, plasma
  Suramin Treatment Effect (KO-Sur/KO-Sal): 2/2 Decreased
[4]; Isoleucine, Valine, Threonine, or Methionine Metabolism, plasma
  Suramin Treatment Effect (KO-Sur/KO-Sal): Increased
[4]; Krebs Cycle, plasma
  Suramin Treatment Effect (KO-Sur/KO-Sal): Increased
[4]; Microbiome Metabolism, plasma
  Suramin Treatment Effect (KO-Sur/KO-Sal): 2/3 Decreased
[4]; Nitric Oxide, Superoxide, Peroxide Metabolism, plasma
  Suramin Treatment Effect (KO-Sur/KO-Sal): Increased
[4]; Pentose Phosphate, Gluconate Metabolism, plasma
  Suramin Treatment Effect (KO-Sur/KO-Sal): Increased
[4]; Phospholipid Metabolism, plasma
  Suramin Treatment Effect (KO-Sur/KO-Sal): 6/6 Increased
[4]; Purine Metabolism, plasma metabolites with VIP >=1.5, weekly suramin vs saline
  Suramin Treatment Effect (KO-Sur/KO-Sal): 4/5 Decreased
[4]; Pyrimidine Metabolism, plasma
  Suramin Treatment Effect (KO-Sur/KO-Sal): Decreased
[4]; SAM, SAH, Methionine, Cysteine, Glutathione Metabolism, plasma
  Suramin Treatment Effect (KO-Sur/KO-Sal): 3/3 Increased
[4]; Sphingolipid Metabolism, plasma
  Suramin Treatment Effect (KO-Sur/KO-Sal): 3/5 Decreased
[4]; Vitamin B3 (Niacin, NAD+) Metabolism, plasma
  Suramin Treatment Effect (KO-Sur/KO-Sal): 1/2 Increased
[4]; Vitamin B6 (Pyridoxine) Metabolism, plasma
  Suramin Treatment Effect (KO-Sur/KO-Sal): Increased
[4]; all 20 of 60 Pathways Dysregulated, top 58 metabolites, plasma
  Suramin Treatment Effect (KO-Sur/KO-Sal): 33/58 Increased
[4]; plasma, Fmr1 KO mice, suramin treatment
  acyl-carnitine species with generalized decrease: 9 of 9
[4]; plasma, Fmr1 KO mice, weekly suramin
  biochemical pathways with pharmacometabolomic changes: 20 of 60
[5]
  motor coordination (rotarod): failed to restore normal motor coordination

Reference: US20160209428A1, “DIAGNOSTIC AND PREDICTIVE METABOLITE PATTERNS FOR DISORDERS AFFECTING THE BRAIN AND NERVOUS SYSTEM” (THE REGENTS OF THE UNIVERSITY OF CALIFORNIA, priority 2013, published 2016)
